Patent US12650422B2, “Utility of protein in the prediction of in vivo effects” (Qualyst Transporter Solutions, LLC, priority 2014, dated 2026)
Read-outs that look alike come from different tables or passages of the source.

How the values were obtained:
[1] = tested on: Rat Hepatocytes; assay: Hepatic intracellular concentration (ICC) in rat hepatocytes, observed vs predicted; type: in vitro ADME; conditions: for Observed ICC (uM) BSA: one-step method with BSA
Excerpt: The hepatic intracellular concentration (ICC) of a compound, which reflects the balance of the uptake, metabolism, and efflux out of the cell, can also be determined in the absence and presence of protein.

[2] = tested on: sandwich-cultured rat hepatocytes; assay: Intrinsic biliary clearance in sandwich-cultured rat hepatocytes; conditions: for Observed Cl (ml/min/Kg) BSA: measured in the presence of BSA
Excerpt: Representative calculations that can be employed in accordance with the presently disclosed subject matter include the calculations of a biliary excretion index and a biliary clearance value. […] In some embodiments, the BEI is a calculation of the uptake and excretion of the candidate compound as follows: 100%×{(uptake in the culture with intact bile canaliculi minus uptake within hepatocytes only in the Ca^2+-free culture) divided by (uptake in the culture with intact bile canaliculi)}. In some embodiments, the biliary clearance calculation is performed as follows: (uptake in the culture with intact bile canaliculi minus uptake within hepatocytes only in the Ca^2+-free culture) divided by (time of incubation multiplied by the concentration of the candidate compound in the buffer medium). In some embodiments, a biliary clearance value can be calculated as the ratio of the mass in the bile canaliculi and the area under the curve (AUC) in culture medium, wherein the AUC represents the integral of candidate compound in the medium from time 0 to time T (time can be measure in any desired units, and is usually measured in minutes). Indeed, the term AUC can refer to the following equation: […]
The data for each compound was determined in sandwich-cultured rat hepatocytes at a concentration of 1 μM and an exposure time of 10 minutes in buffer (no protein), in buffer with 4% BSA, or in rat serum.
This latter method is the current industry standard.

[3] = biological target: 4% BSA (Bos taurus, UniProt P02769); assay: Free fraction by equilibrium dialysis in 4% BSA; type: in vitro ADME; conditions: bovine, DPDPE line: 1 uM
Excerpt: (§5) The free fraction is the amount of compound that is considered thermodynamically free in solution compared to the amount which is considered to be thermodynamically bound to the albumin proteins.

[4] = Free fraction by equilibrium dialysis in serum; type: in vitro ADME; conditions: DPDPE line: 1 uM; for fraction unbound: serum
Excerpt: as §5

[5] = biological target: CYP2C9 (Homo sapiens, UniProt P11712)
Protocol: (§1) Sandwich-Cultured Hepatocytes (SCH) were prepared using freshly isolated hepatocytes or cryopreserved hepatocytes. Freshly isolated hepatocytes were plated on 24-well cell culture plates, rinsed and fed with the appropriate species specific Qualyst Transporter Solutions (QTS, Durham, North Carolina, United States of America) propriety culture medium (QualGro™). Cells were maintained in the appropriate species specific medium until consumed in studies.
(§2) Cryopreserved hepatocytes were thawed following manufacturer's thawing instructions. Cryopreserved hepatocytes were subsequently suspended in QTS propriety hepatocyte seeding medium (QualGro™ Seeding Medium) at a density of 0.7-0.8 million viable cells/mL onto BioCoat® 24-well cell culture plates. Following plating, cells were allowed to attach for 2-4 hours, rinsed and fed with warm (37° C.) seeding medium. Eighteen to 24 hours later, cells were fed and overlaid with the appropriate species specific QTS propriety culture medium (QualGro™) supplemented with extracellular matrix (ECM), Matrigel® (0.25 mg/mL). Cells were maintained in QualGro™ Hepatocyte Culture Medium until consumed in studies.
(§3) Cells were cultured as described above through day 6 of culture. On day 7 of culture, spent culture medium was aspirated and replaced with HBSS incubation solution with or without 4% bovine serum albumin (BSA). […] In situ incubations were performed in cell culture incubators (37° C.; 5% CO2; 100% humidity) shaking at 120 rpm for 20-30 minutes. Following the incubation period, incubation solutions were collected and stored at −80° C. until processed for bioanalysis.
(§4) In situ incubations were analyzed for the detection of P450 mediated metabolite formation of hydroxymidazolam from midazolam and hydroxyibuprofen from ibuprofen. Briefly, a volume of 300 μL of internal standard solution (methanol containing 25 nM triazolam and d3-ibuprofen) and a volume of 100 μL of HBSS or HBSS plus 4% BSA were added to a protein precipitation plate (Millipore MDRPNP4; EDM Millipore, Billerica, Massachusetts, United States of America) stacked on a 96 deep well block. The plate was allowed to shake for 1 to 2 minutes prior to centrifugation for collection of the filtered supernatant. The sample filtrate was evaporated to dryness and the samples were reconstituted in 200 μL sample diluent, 40/60 methanol/10 mM ammonium acetate and mixed for at least 20 min on a plate shaker. The reconstituted samples were transferred to a Millipore 0.45 μm filter plate (Millipore MSHVN45) and filtered into a Costar 3957 plate by centrifugation and sealed with a silicone capmat prior to LC-MS/MS analysis.

[6] = tested on: CYP3A4
Protocol: as §1, §2, §3, §4

[7] = cited from earlier work
[8] = tested on: human hepatocytes; assay: Intracellular concentration in human hepatocytes in the presence of albumin protein; type: in vitro ADME
Excerpt: The observed effects of protein on the intracellular concentration, could lead to an over- or under-prediction of a compound's effect, drastically changing the expected clinical outcome. […] However, the intracellular concentrations never achieved high enough levels to result in hepatotoxic effects. […] Since the effect of protein was unanticipated and not predictable, it is desirable to expose the cell to protein during the experiment.

[9] = HBSS value adjusted with free fraction, DPDPE 10 uM
[10] = absence of protein (HBSS), adjusted with free fraction of Table 1, 1 μM

4% BSA, sequence (P02769 25-607): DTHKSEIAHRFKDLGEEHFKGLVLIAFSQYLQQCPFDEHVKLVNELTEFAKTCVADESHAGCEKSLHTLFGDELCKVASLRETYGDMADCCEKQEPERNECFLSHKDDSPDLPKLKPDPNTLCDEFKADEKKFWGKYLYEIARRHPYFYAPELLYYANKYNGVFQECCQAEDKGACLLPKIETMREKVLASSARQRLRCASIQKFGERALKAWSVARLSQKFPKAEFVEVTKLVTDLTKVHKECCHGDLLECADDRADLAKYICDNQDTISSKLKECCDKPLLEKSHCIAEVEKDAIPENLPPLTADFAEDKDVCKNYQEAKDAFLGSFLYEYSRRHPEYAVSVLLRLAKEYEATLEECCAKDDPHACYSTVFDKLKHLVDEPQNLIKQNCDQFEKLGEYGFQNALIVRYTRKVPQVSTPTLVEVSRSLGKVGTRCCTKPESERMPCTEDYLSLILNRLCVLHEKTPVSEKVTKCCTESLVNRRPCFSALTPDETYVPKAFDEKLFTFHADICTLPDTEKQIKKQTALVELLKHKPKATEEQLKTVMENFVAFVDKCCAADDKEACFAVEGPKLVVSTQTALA
CYP2C9, sequence (P11712 whole entry): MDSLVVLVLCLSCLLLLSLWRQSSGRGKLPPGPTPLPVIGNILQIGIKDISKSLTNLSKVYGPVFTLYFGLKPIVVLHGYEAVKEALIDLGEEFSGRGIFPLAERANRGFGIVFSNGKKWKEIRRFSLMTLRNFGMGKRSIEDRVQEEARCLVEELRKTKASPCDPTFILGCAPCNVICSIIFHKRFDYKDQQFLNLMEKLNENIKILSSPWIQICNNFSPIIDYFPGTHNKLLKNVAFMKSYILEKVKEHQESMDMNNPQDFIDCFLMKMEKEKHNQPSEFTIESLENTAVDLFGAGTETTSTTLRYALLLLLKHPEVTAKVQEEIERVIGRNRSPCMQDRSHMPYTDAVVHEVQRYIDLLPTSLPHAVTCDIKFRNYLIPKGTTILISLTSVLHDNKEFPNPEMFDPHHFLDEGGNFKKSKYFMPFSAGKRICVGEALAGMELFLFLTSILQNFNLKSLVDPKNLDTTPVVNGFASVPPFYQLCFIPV

Predicted ICC (uM) HBSS [1, 10] | Observed ICC (uM) BSA ([1]; 1 μM) | fraction unbound [3] | Intrinsic Biliary Clearance, BSA [2] | Intrinsic Biliary Clearance, No Protein ([2]; rat) | Predicted Cl (ml/min/Kg) HBSS ([2]; rat, 10 min, 1 μM) | Intrinsic Biliary Clearance, Serum ([2]; rat) | fraction unbound [4] | SMILES | further results
1.59 µM | 1.29 µM | 0.852 | 9.25 mL/min/kg | 10.4 mL/min/kg | 8.85 mL/min/kg | 5.12 |  | C[C@H]1O[C@@H](O[C@H]2[C@@H](O)C[C@H](O[C@H]3[C@@H](O)C[C@H](O[C@H]4CC[C@@]5(C)[C@H](CC[C@@H]6[C@@H]5C[C@@H](O)[C@]5(C)[C@@H](C7=CC(=O)OC7)CC[C@]65O)C4)O[C@@H]3C)O[C@@H]2C)C[C@H](O)[C@@H]1O [Digoxin] | Free Fraction in Serum [4]: 0.727
 |  |  |  |  |  |  |  | OC(Cn1cncn1)(Cn1cncn1)c1ccc(F)cc1F [Fluconazole] | CYP2C9 enzyme activity reduced to % of control [5]: 24.4-45.1 % of control
 |  |  |  |  |  |  |  | CC(=O)N1CCN(c2ccc(OCC3COC(Cn4ccnc4)(c4ccc(Cl)cc4Cl)O3)cc2)CC1 (stereo not drawn) [Ketoconazole] | CYP3A4/5 Mean % Remaining ([6]; 4% BSA, inhibitor 0.0500 μM): 54.6%; CYP3A4/5 Mean % Remaining ([6]; 4% BSA, inhibitor 0.250 μM): 40.8%; CYP3A4/5 Mean % Remaining ([6]; No BSA, inhibitor 0.050 μM): 45.1%; CYP3A4/5 Mean % Remaining ([6]; No BSA, inhibitor 0.250 μM): 24.4%
0.48 µM | 0.47 µM | 0.428 | 0.19 mL/min/kg | 0.54 mL/min/kg | 0.23 mL/min/kg | 0.91 | 0.499 | CN(Cc1cnc2nc(N)nc(N)c2n1)c1ccc(C(=O)N[C@@H](CCC(=O)O)C(=O)O)cc1 [Methotrexate] | 
 |  | 0.047 | 140 mL/min/kg | 52 mL/min/kg | 2.44 mL/min/kg | 277.50 | 0.004 | O=C(O)C[C@H](O)C[C@H](O)/C=C/c1c(C2CC2)nc2ccccc2c1-c1ccc(F)cc1 [Pitavastatin] | Predicted biliary clearance compared with observed biliary clearance [2]: under-estimated by a significant amount
 |  | 0.734 | 6.47 mL/min/kg | 7.35 mL/min/kg | 5.39 mL/min/kg | 2.06 | 0.554 | CC[C@H](C)C(=O)O[C@H]1C[C@H](O)C=C2C=C[C@H](C)[C@H](CC[C@@H](O)C[C@@H](O)CC(=O)O)[C@H]21 [Pravastatin] | 
3.09 µM | 6.81 µM | 0.136 | 164 mL/min/kg | 53.1 mL/min/kg | 7.22 mL/min/kg |  |  | CC(C)c1nc(N(C)S(C)(=O)=O)nc(-c2ccc(F)cc2)c1/C=C/[C@@H](O)C[C@@H](O)CC(=O)O [Rosuvastatin] | Predicted biliary clearance compared with observed biliary clearance [2]: under-estimated by a significant amount
0.44 µM | 0.22 µM | 0.075 | 3.06 mL/min/kg | 4.73 mL/min/kg | 0.36 mL/min/kg | 1.39 | 0.004 | CCCCC(=O)N(Cc1ccc(-c2ccccc2-c2nnn[nH]2)cc1)[C@H](C(=O)O)C(C)C [Valsartan] | 
 |  |  |  |  |  |  |  | CCCc1nc2c(C)cc(-c3nc4ccccc4n3C)cc2n1Cc1ccc(-c2ccccc2C(=O)O)cc1 [telmisartan] | Toxicity associated with its use (in vivo data) [7]: no known toxicity; Intracellular concentration in presence of protein greater than predicted from protein-free data adjusted by free fraction [8]: 100 ×

SMILES | Predicted ICC (uM) HBSS [1, 10] | Observed ICC (uM) BSA ([1]; 1 μM) | fraction unbound [3] | Intrinsic Biliary Clearance, BSA [2] | Intrinsic Biliary Clearance, No Protein ([2]; rat) | Predicted Cl (ml/min/Kg) HBSS ([2]; rat, 10 min, 1 μM) | Intrinsic Biliary Clearance, Serum ([2]; rat) | fraction unbound [4] | further results
CC1(C)SSC(C)(C)[C@@H](NC(=O)[C@@H](N)Cc2ccc(O)cc2)C(=O)NCC(=O)N[C@@H](Cc2ccccc2)C(=O)N[C@H]1C(=O)O [DPDPE] | 1.42 µM | 1.98 µM |  |  |  |  |  |  | Predicted ICC (uM) HBSS [1, 9]: 13.63 µM; Observed ICC (uM) BSA ([1]; DPDPE 10 uM): 15.51 µM; Predicted Cl (ml/min/Kg) HBSS [2, 9]: 4.24 mL/min/kg; Predicted Cl (ml/min/Kg) HBSS ([2]; measured in absence of protein (HBSS), adjusted with free fraction of Table 1, 1 μM): 5.69 mL/min/kg; Observed Cl (ml/min/Kg) BSA ([2]; 1 μM): 2.51 mL/min/kg; Observed Cl (ml/min/Kg) BSA ([2]; DPDPE 10 uM): 3.32 mL/min/kg; Predicted biliary clearance compared with observed biliary clearance ([2]; two-step prediction vs measurement with BSA, DPDPE at 1 μM): over-estimated
